The text below walks through data of ChEMBL document CHEMBL4265943, “Design and synthesis of potent dual inhibitors of JAK2 and HDAC based on fusing the pharmacophores of XL019 and vorinostat” (Eur J Med Chem, 2018).

Data set [1] deals with MDA-MB-231. The data set can be described thus: Induction of apoptosis in human MDA-MB-231 cells assessed as early apoptotic cells at 0.9 uM after 72 hrs by Annexin V-FITC/propidium iodide staining based flow cytometry (reference value: 1.45%). Type of data set: functional.
In data set [2] the test system is PC-3. Put plainly: Induction of apoptosis in human PC3 cells assessed as early apoptotic cells at 0.71 uM after 72 hrs by Annexin V-FITC/propidium iodide staining based flow cytometry (reference value: […]%). In kind it is functional.
A short description of data set [3]: Selectivity index, ratio of CC50 for mouse TAMH cells to IC50 for human MCF7 cells. In kind it is toxicity. The note with it: TAMH cells (CC50) and MCF7 cells (IC50).
For data set [4], the system named is PC-3. The data set can be described thus: Induction of apoptosis in human PC3 cells assessed as late apoptotic cells at 0.71 uM after 72 hrs by Annexin V-FITC/propidium iodide staining based flow cytometry (reference value: 1.01%). Type of data set: functional.
The test system of data set [5] is MDA-MB-231. Put plainly: Antiproliferative activity against human MDA-MB-231 cells after 72 hrs by MTT assay. Type of data set: functional, cell-based. The note with it: MDA-MB-231, 72 h. On the technique in general: Tetrazolium assays rely on reduction of a dye to a coloured formazan, in cell work by metabolically active cells.
The nature of data set [6]: Selectivity index, ratio of CC50 for human AC10 cells to IC50 for human PC3 cells. Type of data set: toxicity. The note with it: AC10 cells (CC50) and PC3 cells (IC50).
Data set [7] deals with PC-3. The data set can be described thus: Induction of apoptosis in human PC3 cells assessed as live cells at 0.71 uM after 72 hrs by Annexin V-FITC/propidium iodide staining based flow cytometry (reference value: 96.36%). Type of data set: functional. In general terms: A flow cytometer gives signals particle by particle.
For data set [8], the system named is HCT-116. Put plainly: Induction of apoptosis in human HCT116 cells assessed as necrotic cells at 1.14 uM after 72 hrs by Annexin V-FITC/propidium iodide staining based flow cytometry (reference value: 1.54%). Type of data set: functional.
Data set [9] in a line: Selectivity index, ratio of CC50 for mouse TAMH cells to IC50 for human HCT116 cells. Type of data set: toxicity. The settings on record: TAMH cells (CC50) and HCT116 cells (IC50).
The nature of data set [10]: Selectivity index, ratio of CC50 for human AC10 cells to IC50 for human MDA-MB-231 cells. Type of data set: toxicity. The settings on record: AC10 cells (CC50) and MDA-MB-231 cells (IC50).
The test system of data set [11] is PC-3. Put plainly: Antiproliferative activity against human PC3 cells after 72 hrs by MTT assay. The note with it: PC-3, 72 h. In kind it is functional, cell-based.
Data set [12] has as its system MCF7. Put plainly: Induction of apoptosis in human MCF7 cells assessed as late apoptotic cells at 0.86 uM after 72 hrs by Annexin V-FITC/propidium iodide staining based flow cytometry (reference value: 1.59%). Type of data set: functional.
In a further data set the target is Histone deacetylase 1 (Homo sapiens, UniProt Q13547). The data set can be described thus: Inhibition of HDAC1 (unknown origin) using Arg-His-Lys-Lys(Ac) as substrate preincubated with enzyme followed by substrate addition for 2 hrs and measured for 1.5 hrs at 15 mins time interval by fluorescence assay.
The subject of data set [13] is HCT-116. Put plainly: Induction of apoptosis in human HCT116 cells assessed as late apoptotic cells at 1.14 uM after 72 hrs by Annexin V-FITC/propidium iodide staining based flow cytometry (reference value: 1.45%). In kind it is functional.
A short description of data set [14]: Antiproliferative activity against human AC10 cells after 72 hrs by MTT assay. Type of data set: cell-based.
Data set [15] concerns MCF7. Put plainly: Induction of apoptosis in human MCF7 cells assessed as live cells at 0.86 uM after 72 hrs by Annexin V-FITC/propidium iodide staining based flow cytometry (reference value: 95.05%). Type of data set: functional.
The target in data set [16] is T1, Protein deacetylase HDAC6 (Homo sapiens, UniProt Q9UBN7).
T1 sequence (Q9UBN7 whole entry): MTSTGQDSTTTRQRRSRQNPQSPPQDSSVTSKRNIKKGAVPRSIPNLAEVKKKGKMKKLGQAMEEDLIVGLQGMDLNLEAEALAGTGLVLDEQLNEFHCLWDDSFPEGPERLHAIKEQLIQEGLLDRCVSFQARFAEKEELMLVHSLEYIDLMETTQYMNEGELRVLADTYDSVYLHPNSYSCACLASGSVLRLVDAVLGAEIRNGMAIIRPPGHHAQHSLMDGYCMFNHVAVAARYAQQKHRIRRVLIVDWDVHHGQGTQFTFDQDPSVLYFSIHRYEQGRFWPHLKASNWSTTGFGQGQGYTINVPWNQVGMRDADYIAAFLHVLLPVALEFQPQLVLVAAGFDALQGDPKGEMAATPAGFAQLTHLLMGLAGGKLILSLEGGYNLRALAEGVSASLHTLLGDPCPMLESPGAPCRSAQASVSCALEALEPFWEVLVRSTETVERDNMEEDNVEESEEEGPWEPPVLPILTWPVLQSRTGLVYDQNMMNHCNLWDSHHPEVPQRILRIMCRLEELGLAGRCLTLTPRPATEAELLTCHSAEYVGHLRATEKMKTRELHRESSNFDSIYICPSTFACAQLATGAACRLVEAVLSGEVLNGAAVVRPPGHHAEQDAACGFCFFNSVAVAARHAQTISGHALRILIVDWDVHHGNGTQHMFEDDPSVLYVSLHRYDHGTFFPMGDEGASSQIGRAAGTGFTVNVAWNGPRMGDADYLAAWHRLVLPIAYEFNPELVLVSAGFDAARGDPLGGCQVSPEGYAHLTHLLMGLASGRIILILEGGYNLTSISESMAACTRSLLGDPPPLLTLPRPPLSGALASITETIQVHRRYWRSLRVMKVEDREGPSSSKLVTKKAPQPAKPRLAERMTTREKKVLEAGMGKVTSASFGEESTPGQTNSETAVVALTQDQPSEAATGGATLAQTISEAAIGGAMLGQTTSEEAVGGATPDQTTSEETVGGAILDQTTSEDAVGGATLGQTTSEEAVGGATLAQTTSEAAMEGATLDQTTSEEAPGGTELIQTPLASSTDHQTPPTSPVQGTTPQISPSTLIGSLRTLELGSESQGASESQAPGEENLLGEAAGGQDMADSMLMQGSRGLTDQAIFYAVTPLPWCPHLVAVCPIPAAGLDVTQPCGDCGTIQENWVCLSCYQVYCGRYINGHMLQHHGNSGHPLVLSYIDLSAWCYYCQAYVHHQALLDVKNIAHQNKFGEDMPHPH
The data set can be described thus: Inhibition of HDAC6 (unknown origin) using Arg-His-Lys-Lys(Ac) as substrate preincubated with enzyme followed by substrate addition for 2 hrs and measured for 1.5 hrs at 15 mins time interval by fluorescence assay.

For data set [17], the system named is HCT-116. The data set can be described thus: Induction of apoptosis in human HCT116 cells assessed as early apoptotic cells at 1.14 uM after 72 hrs by Annexin V-FITC/propidium iodide staining based flow cytometry (reference value: 1.31%). Type of data set: functional.
Data set [18] is described as follows: Selectivity index, ratio of CC50 for mouse TAMH cells to IC50 for human MDA-MB-231 cells. Type of data set: toxicity. The note with it: TAMH cells (CC50) and MDA-MB-231 cells (IC50).
Another data set is filed under the species Homo sapiens. Put plainly: Selectivity ratio of IC50 for human JAK1 to IC50 for human JAK2.
In data set [19] the target is Tyrosine-protein kinase JAK1 (Homo sapiens, UniProt P23458). The data set can be described thus: Inhibition of human JAK1 using poly(Glu:Tyr)(4:1) as substrate preincubated for 20 mins followed by [gamma33P]ATP addition measured after 120 mins by ion exchange filter paper method.
Data set [20] is described as follows: Antiproliferative activity against mouse TAMH cells after 72 hrs by MTT assay. In kind it is cell-based.
Data set [21] in a line: Selectivity index, ratio of CC50 for human AC10 cells to IC50 for human HCT116 cells. In kind it is toxicity. The settings on record: AC10 cells (CC50) and HCT116 cells (IC50).

Broadly, the IC50 is the midpoint of a concentration-inhibition curve. Low readings indicate greater potency, high ones weaker potency. In general, CC50 refers to the concentration that lowers cell viability or growth by half.

Histone deacetylase 1, sequence (Q13547 whole entry): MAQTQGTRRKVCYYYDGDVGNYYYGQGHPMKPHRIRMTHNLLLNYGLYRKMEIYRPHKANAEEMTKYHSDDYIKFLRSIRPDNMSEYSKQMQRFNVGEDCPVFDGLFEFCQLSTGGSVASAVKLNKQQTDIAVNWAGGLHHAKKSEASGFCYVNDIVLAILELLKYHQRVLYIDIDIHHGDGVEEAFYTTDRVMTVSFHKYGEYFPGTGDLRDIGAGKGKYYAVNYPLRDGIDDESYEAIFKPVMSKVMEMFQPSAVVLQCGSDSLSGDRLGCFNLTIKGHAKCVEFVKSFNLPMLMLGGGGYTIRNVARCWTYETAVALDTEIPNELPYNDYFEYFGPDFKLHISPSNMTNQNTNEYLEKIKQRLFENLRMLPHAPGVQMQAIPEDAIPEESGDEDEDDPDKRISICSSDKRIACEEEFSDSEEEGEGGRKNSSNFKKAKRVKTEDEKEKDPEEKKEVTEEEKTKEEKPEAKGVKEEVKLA
Tyrosine-protein kinase JAK1, sequence (P23458 whole entry): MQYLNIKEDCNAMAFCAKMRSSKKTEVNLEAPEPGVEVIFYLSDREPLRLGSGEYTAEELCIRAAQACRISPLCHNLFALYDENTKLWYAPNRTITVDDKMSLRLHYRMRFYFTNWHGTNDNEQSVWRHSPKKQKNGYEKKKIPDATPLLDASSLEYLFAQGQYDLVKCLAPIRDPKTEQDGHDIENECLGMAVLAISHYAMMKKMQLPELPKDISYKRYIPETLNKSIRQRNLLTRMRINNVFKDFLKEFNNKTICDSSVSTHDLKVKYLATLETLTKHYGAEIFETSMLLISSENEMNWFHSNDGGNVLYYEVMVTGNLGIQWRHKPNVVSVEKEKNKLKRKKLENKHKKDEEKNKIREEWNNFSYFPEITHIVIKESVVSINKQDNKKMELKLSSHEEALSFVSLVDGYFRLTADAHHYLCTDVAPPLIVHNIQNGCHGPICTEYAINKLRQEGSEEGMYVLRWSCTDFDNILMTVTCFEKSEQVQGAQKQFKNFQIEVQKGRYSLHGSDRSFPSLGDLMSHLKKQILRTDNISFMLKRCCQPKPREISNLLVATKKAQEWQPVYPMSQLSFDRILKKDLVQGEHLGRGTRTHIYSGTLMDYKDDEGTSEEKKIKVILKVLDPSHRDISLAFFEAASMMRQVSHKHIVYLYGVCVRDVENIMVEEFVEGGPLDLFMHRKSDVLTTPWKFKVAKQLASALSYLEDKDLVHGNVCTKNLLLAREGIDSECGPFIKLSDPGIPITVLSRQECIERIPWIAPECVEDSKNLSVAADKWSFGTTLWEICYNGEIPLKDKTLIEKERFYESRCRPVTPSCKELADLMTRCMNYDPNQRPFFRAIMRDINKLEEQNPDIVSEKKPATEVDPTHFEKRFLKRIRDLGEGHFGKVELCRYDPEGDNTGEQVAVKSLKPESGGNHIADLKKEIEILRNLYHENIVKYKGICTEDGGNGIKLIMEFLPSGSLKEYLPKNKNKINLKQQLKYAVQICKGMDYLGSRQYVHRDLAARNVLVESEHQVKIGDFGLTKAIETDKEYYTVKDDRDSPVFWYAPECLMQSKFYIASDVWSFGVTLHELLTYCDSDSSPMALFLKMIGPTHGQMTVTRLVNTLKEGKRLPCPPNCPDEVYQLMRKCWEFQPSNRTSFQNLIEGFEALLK

Regarding `O=C(CCCCCCC(=O)Nc1ccc(-c2ccnc(Nc3ccc(N4CCOCC4)cc3)n2)cc1)NO`, the Activity was 43.86% in the data set with MDA-MB-231 [1]; 45.69% with PC-3 [2]; 13.06% with PC-3 [4]; 39.88% in the data set on PC-3 [7]; 4.29% with HCT-116 [8]; 24.84% in the data set with MCF7 [12]. Further, the Activity with HCT-116 [13] is given as 12.12%; in the data set on MCF7 [15], 37.54%; in the data set with HCT-116 [17], 31.19%. The selectivity ratio was 9.13 in data set [3]; 6.22 in [6]; 6.09 in data set [9]; 4.02 in [10]; 6.45 in data set [18]; 3.79 in data set [21]. Besides, the IC50 turned out to be 990 nM with MDA-MB-231 [5]; 640 nM in the data set with PC-3 [11]; 56 nM at Histone deacetylase 1; 1.2 nM in data set [16]; 52.1 nM in data set [19]. Besides, the half-maximal cytotoxic concentration (CC50) at 72 h in [14] was 3980 nM; in data set [20] it was 6390 nM. Moreover, in the data set listed under Homo sapiens, the Ratio IC50 was determined as 16.8.
